# Measurements: patent publication US5691189A (priority 1995, dated 1997)
# Entries after “also recorded” stand apart in the source; their conditions may differ.
# Assays:
# Format in all cases: cell-based
# [1] = molecular target: M2 (WSN, N31S) (M2 protein of Influenza A virus) (Influenza A virus (A/Wilson-Smith/1933(H1N1)), UniProt P05780, N31S)
# [2] = molecular target: Udorn M2 (M2 protein of Influenza A virus) (Influenza A virus (A/Udorn/307/1972(H3N2)), UniProt P0DOF5)
# [3] = molecular target: T1, M2 (WSN) (M2 protein of Influenza A virus) (Influenza A virus (A/Wilson-Smith/1933(H1N1)), UniProt P05780); details: inducing media (galactose), 30° C., A600 versus time; amantadine 100 μM (FIG. 4)
# T1 construct: amantadine-resistant, natural Asn31
compound,measurement,setting,value
NC12CC3CC(CC(C3)C1)C2 [amantadine],toxicity of overexpressed WSN(N31S) M2 allele in yeast on addition of amantadine to the media,[1],blocked
same,growth of yeast transformants expressing the Udorn allele of M2 in the presence of amantadine,[2],growth rescue; also recorded: grow at near wild-type rates
same,growth of yeast transformants expressing the amantadine-resistant WSN allele of M2 in the presence of amantadine,[3],not remediated
